Reference: US20090076092A1, “METHOD FOR DISRUPTING REPRODUCTIVE PERFORMANCE OF ARTHROPODS” (priority 2006, published 2009)

Experiments:
Type in all cases: in vivo
[1] = test system: beet armyworm (Spodoptera exigua); assay: Test F: oviposition and egg hatch of treated beet armyworm adults; details: for % of reduction: oviposition versus control; for No. neonates: total from successful egg hatch
Text: For evaluating the reproductive performance effects on beet armyworm (Spodoptera exigua), each test unit consisted of one pair of adult (female and male) Spodoptera exigua moths. To obtain the adult moths, pupae of approximately the same age (±1 day) were sexed and placed in individual containers until adults emerged. After emergence, the test insects were placed in a meshed cage.
Sub-lethal concentrations of Compound 1 on beet armyworm were defined based on a preliminary study using rates of 12.5, 25, 50 and 100 ppm.
The caged adults were sprayed with test solutions of the designated treatments using a compressed air-propelled (moving) belt sprayer calibrated at 0.7 m/sec (to deliver a flow rate was ca. 5.5 mL/sec), at 207 kPa, using nozzle 8001E Tee Jet flat fan spray nozzle positioned 18 cm above the test units. Each treatment had 12 replicates (i.e. 12 adult females and 12 adult males were used per treatment).
One day after treatment, a treated male and female (one each) were placed in a cage made from a 300 mL clear plastic cup covered with screened cloth and allowed to copulate. A cotton wick/plug soaked with 10% sucrose solution was supplied in each cage as a diet source.
The number of eggs laid and number of eggs hatched were counted at 3, 4, 5 and 6 days after treatment (DAT), which represented the typical period in which female moths actively produce viable eggs. The pair of moths was transferred to a new cage after each evaluation. To evaluate the number of egg hatched, the copulation cages containing eggs were saved and maintained in a growth chamber at 27° C., 50% relative humidity and 16 hours of light per day.
The raw data were analyzed using Fisher's LSD tests for means separation. […] The percent of reduction was derived by dividing the number of eggs from each treatment by the number of eggs from the control, subtracting the quotient from 1, and then multiplying by 100%.

[2] = test system: diamondback moth (Plutella xylostella); assay: Test G: number of eggs (fecundity) of adult diamondback moth; details: 10 ppm, control itself gave very few eggs
Text: For evaluating the reproductive performance effects on diamondback moth (Plutella xylostella), a minimum of 120 larvae of diamondback moth of each sex were used. Male and female individuals of late instar larvae were separated and caged in individual containers containing Chinese kale. Male diamondback moths were identified by a white dot on the abdomen at the late instar larval stage. When pupae emerged, each pupa was caged separately until it emerged as adult.
(§1) In addition, a control without test compound was included.
Groups of 40 newly emerged (<24 hours) moths of the same sex were placed inside a meshed cage. The caged adult moths were then sprayed with the test solution, using a CO2 backpack sprayer at 500 L/Ha. For the control treatment, the adults were sprayed with water at a similar spray volume. The groups of treated individuals were then transferred into a clean container with a source of adult diet (i.e. a cotton wick soaked in 10% sucrose solution). Separate containers were used for different groups of treated insects. One day after treatment, the numbers of live, moribund and dead adults were counted. One live treated male and one live treated female were placed together in a copulation cage, which was a 300 mL clear plastic cup covered with nylon screen supplied with an adult diet source of 10% sucrose solution.
Each pair of virgin adults was a replicate, and each treatment consisted of 10 to 20 replicates. Every day each pair of moths was moved to a new cup supplied with a diet of 10% sucrose solution.
The number of eggs laid per female moth was counted daily during the two days when the female moths actively produced viable eggs. The results, listed in Table G, indicate that no meaningful comparative information can be inferred, as the even the Control provided very few eggs per female moth; this indicates a systemic reproduction problem from unknown causes. However, had the Control worked, we expect to see the reproductive performance effects on diamondback moth.

diamondback moth = assay: Previous laboratory studies of diamondback moth mortality; details: Plutella xylostella, read-out: mortality of the diamondback moth (LC20)
Text: The sub-lethal concentrations or doses used in the various tests for the specific pest species and populations tested in the context of the present invention were estimated from multiple-rate, dose-finding tests to determine the control rates and activity break rates. […] Therefore, depending on the target pest species, either the LC50 or a suitable concentration between LC50 and LC20 was selected as the sub-lethal dose. The specific procedures used to select the respective doses are described in each Test.
as §1

SMILES: CNC(=O)c1cc(Cl)cc(C)c1NC(=O)c1cc(Br)nn1-c1ncccc1Cl [Compound 1, 3-bromo-N-[4-chloro-2-methyl-6-[(methylamino)carbonyl]phenyl]-1-(3-chloro-2-pyridinyl)-1H-pyrazole-5-carboxamide]
- % hatched ([1]; 12.5 ppm, 3 DAT): 83%
- No. eggs ([1]; 12.5 ppm, 3 DAT): 782 b
- % of reduction ([1]; 12.5 ppm, 3 DAT): 66%
- No. neonates ([1]; 12.5 ppm, 3 DAT): 647 b
- % hatched ([1]; 12.5 ppm, 4 DAT): 82%
- No. eggs ([1]; 12.5 ppm, 4 DAT): 315 b
- % of reduction ([1]; 12.5 ppm, 4 DAT): 66%
- No. neonates ([1]; 12.5 ppm, 4 DAT): 257 b
- % hatched ([1]; 12.5 ppm, 5 DAT): 60%
- No. eggs ([1]; 12.5 ppm, 5 DAT): 256 b
- % of reduction ([1]; 12.5 ppm, 5 DAT): 77%
- No. neonates ([1]; 12.5 ppm, 5 DAT): 154 b
- % hatched ([1]; 12.5 ppm, 6 DAT): 41%
- No. eggs ([1]; 12.5 ppm, 6 DAT): 219 b
- % of reduction ([1]; 12.5 ppm, 6 DAT): 73%
- No. neonates ([1]; 12.5 ppm, 6 DAT): 90 b
- % hatched ([1]; 20 ppm, 3 DAT): 31%
- No. eggs ([1]; 20 ppm, 3 DAT): 208 b
- % of reduction ([1]; 20 ppm, 3 DAT): 91%
- No. neonates ([1]; 20 ppm, 3 DAT): 65 b
- % hatched ([1]; 20 ppm, 4 DAT): 0%
- No. eggs ([1]; 20 ppm, 4 DAT): 134 bc
- % of reduction ([1]; 20 ppm, 4 DAT): 91%
- No. neonates ([1]; 20 ppm, 4 DAT): 0 b
- % hatched ([1]; 20 ppm, 5 DAT): 0%
- No. eggs ([1]; 20 ppm, 5 DAT): 132 b
- % of reduction ([1]; 20 ppm, 5 DAT): 89%
- No. neonates ([1]; 20 ppm, 5 DAT): 0 b
- % hatched ([1]; 20 ppm, 6 DAT): 0%
- No. eggs ([1]; 20 ppm, 6 DAT): 109 b
- % of reduction ([1]; 20 ppm, 6 DAT): 87%
- No. neonates ([1]; 20 ppm, 6 DAT): 0 b
- % hatched ([1]; 31 ppm, 3 DAT): 0%
- No. eggs ([1]; 31 ppm, 3 DAT): 61 b
- % of reduction ([1]; 31 ppm, 3 DAT): 97%
- No. neonates ([1]; 31 ppm, 3 DAT): 0 b
- % hatched ([1]; 31 ppm, 4 DAT): 0%
- No. eggs ([1]; 31 ppm, 4 DAT): 29 c
- % of reduction ([1]; 31 ppm, 4 DAT): 97%
- No. neonates ([1]; 31 ppm, 4 DAT): 0 b
- % hatched ([1]; 31 ppm, 5 DAT): 0%
- No. eggs ([1]; 31 ppm, 5 DAT): 91 b
- % of reduction ([1]; 31 ppm, 5 DAT): 92%
- No. neonates ([1]; 31 ppm, 5 DAT): 0 b
- % hatched ([1]; 31 ppm, 6 DAT): 0%
- No. eggs ([1]; 31 ppm, 6 DAT): 108 b
- % of reduction ([1]; 31 ppm, 6 DAT): 87%
- No. neonates ([1]; 31 ppm, 6 DAT): 0 b
- number of eggs (fecundity) and number of neonates (fertility) versus control ([1]; all the tested rates (12.5, 20, 31 ppm), all the observation dates): significant reductions
- No. of eggs per female moth ([2]; 1 DAT): 0
- No. of eggs per female moth ([2]; 2 DAT): 2.2
- mortality at 10 ppm (diamondback moth): ~20%
